Here are results for four compounds from patent US5153353A, “p-Oxybenzoic acid derivatives, process for the preparation thereof and use thereof as drug” (Klinge Pharma GmbH, priority 1990, dated 1992).

Test [1] concerns cholesterol biosynthesis in rat liver homogenate. As to the kind of experiment: Determination of the inhibition of cholesterol biosynthesis in rat liver homogenate (14C-acetate incorporation). The settings on record: compared with the blank value. The test is classed as biochemical. As to the method:
2) Determination of the inhibition of cholesterol biosynthesis
3 g freshly prepared rat liver was homogenized in 6 ml ice-cooled puffer and centrifuged for 20 minutes at 20000×g. The supernatant was separated off and employed for the following determinations.
To a mixture of 110 μl supernatant and 300 μl incubation solution 10 μl of the methanolic test substance solution were pipetted and incubated at 37° C. for 20 minutes. Thereafter 10 μl of an ^14 C-acetate solution were added by pipette and incubated for a further 30 minutes. Thereafter, to the mixture 500 μl ethanolic KOH solution were added, further incubation carried out for 60 minutes at 75° C. and thereafter the reaction stopped in an ice bath. To enable a yield correction to be made for the subsequent extraction of the ^14 C-cholesterol formed ^3 H-cholesterol (about 10^-3 μCi) was added thereto by pipetting. In addition, 500 μl of an ethanolic solution of unmarked cholesterol was added. The cholesterol of the mixture was extracted twice with 1 ml petroleum ether in each case, the extract dried and taken up with 0.6 ml of an ethanol/acetone mixture (1/1). The dissolved cholesterol was then precipitated by means of 1.4 ml of a digitonin solution (=7 mg). After 15 h at 0° C. the precipitate was centrifuged off, dissolved with 0.5 ml methanol/glacial acetic acid (33/5) and diluted with 2 ml methanol. The radioactivity of the biosynthetically formed cholesterol was determined in 12 ml scintillation liquid (DIMILUME) by means of a scintillation counter.
Buffer: 6.8 g KH2 PO4, 0.6 g MgCl2, 0.37 g EDTA, 1.83 g nicotine amide, 51.35 g saccharose and 0.4 g mercaptoethanol were dissolved in distilled water and diluted to 500 ml (PH =7.2).
Incubation solution: The following were each individually dissolved:
8.6 mg NAD with 1.3 ml buffer
10.2 mg NADP with 1.3 ml buffer
39.6 mg glucose-6-phosphate with 0.65 ml buffer
31.6 mg glucose-6-phosphate-dehydrogenase (1000 U/0.91 ml) with 0.285 ml buffer
These solutions were not mixed until immediately prior to use.
Solution 1: 250 μCi ^14 C-sodium acetate in 1 ml aqua dest.
Solution 2: 512.5 mg sodium acetate in 10 ml aqua dest.
Prior to the test 0.1 ml of the solution 1 and 0.4 ml of the solution 2 were mixed and added to 2 ml aqua dest.
Ethanolic KOH: 10 g KOH were dissolved in 100 ml. ethanol
Method: R. E. Dugan et al. (Archives Biochem. Biophys. 152,21 (1972))

Test [2] has as its system normolipemic, male Wister rats. As to the kind of experiment: Determination of the hypolipemic effect in rats (serum total cholesterol and triglycerides after oral administration). The class given is in vivo, rat. The settings on record: three administrations over three days. As to the method:
1) Determination of the hypolipemic effect in rats
The lipid-lowering effect of the test substances was examined in groups each of 10 normolipemic, male Wister rats of 200 to 220 g in weight.
The investigations were performed after a 3-week adaption training of the eating habits of the animals. The controlled feeding was carried out daily from 8 a.m. to 10 a.m. The test substances were administered at 11 a.m.
The test compounds were absorbed in an aqueous solution of 0.25% agar and 0.84% NaCl and administered orally. After three administrations over a period of three days blood was extracted from the animals.
The determination of cholesterol and triglycerides in the serum was made with the aid of the "Cobas-Bio" centrifugal analyzer of Hoffmann-La Roche.
a) Cholesterol determination CHOS-PAP method, enzymatic colour test according to J. Siedel et al. (J. Clin. Chem. Clin. Biochem. 19, 838 (1981))
b) Triglyceride determination Enzymatic cleavage of the triglycerides with the aid of specific lipases with subsequent determination of the liberated glycerol according to T. O. Tiffany et al. (Clin. Chem. 20, 476 (1974))

As for `CC(C)(C)c1ccc(CCC(O)COc2ccc(C(=O)OCC(O)CO)cc2)cc1` (stereo not drawn) [Compound 1, 4-[4-(4'-tert. butylphenyl)-2-hydoxybutoxy]benzoic acid-2,3-dihydroxypropylester], the “Percentage inhibition of cholesterol biosynthesis in rat liver homogenate” value (from here on “Percentage inhibition”) in test [1] (concentration 1 × 10^-4 Mol/l) turned out to be 68%; in test [1] (concentration 1 × 10^-5 Mol/l), 34%; in test [1] (concentration 3 × 10^-5 Mol/l), 57%; in test [1] (concentration 3 × 10^-6 Mol/l), 0%. Besides, the figures for the “Percentage change of the total cholesterol (TC) level in the rat serum, X ± SD” value in test [2] (10 mg/kg), in test [2] (30 mg/kg) and in test [2] (100 mg/kg) were “+3.8 ± 16.4%”, -17.1 ± 13.9% and -44.1 ± 10.8%, respectively. Also, the “Percentage change of the triglyceride (TG) level in the rat serum, X ± SD” value (from here on “Percentage change of the triglyceride … X ± SD”) is -26.2 ± 51.1% in test [2] (10 mg/kg), -28.5 ± 9.0% in test [2] (30 mg/kg) and -34.7 ± 8.6% in test [2] (100 mg/kg).
Take `CC(C)(CO)c1ccc(CCC(O)COc2ccc(C(=O)O)cc2)cc1` (stereo not drawn) [Compound 2]: the “Percentage inhibition” value in test [1] (concentration 1 × 10^-4 Mol/l) is given as 75%; in test [1] (concentration 1 × 10^-5 Mol/l), 41%; in test [1] (concentration 3 × 10^-5 Mol/l), 65%; in test [1] (concentration 3 × 10^-6 Mol/l), 16%. The “Percentage change of the total cholesterol (TC) level in the rat serum, X ± SD” value in test [2] (100 mg/kg) was -39.7 ± 12.4%. Moreover, the “Percentage change of the triglyceride … X ± SD” value in test [2] (100 mg/kg) is on record as -1.6 ± 21.4%.
For the compound `CCOC(=O)C(C)(C)Oc1ccc(Cl)cc1` [CLOFIBRAT, reference compound], in test [2] (100 mg/kg), the “Percentage change of the total cholesterol (TC) level in the rat serum, X ± SD” value is recorded as -14.5 ± 12.0% and the “Percentage change of the triglyceride … X ± SD” value is reported as -29.2 ± 19.4%.
Regarding `CC(C)(C(=O)O)c1ccc(CCC(O)COc2ccc(C(=O)O)cc2)cc1` (stereo not drawn) [Compound 3, 4-{4-[4'-(1-carboxy-1-methylethyl)phenyl]-2-hydroxybutoxy}benzoic acid], the “Percentage inhibition” value was determined as 70% in test [1] (concentration 1 × 10^-4 Mol/l), 29% in test [1] (concentration 1 × 10^-5 Mol/l), 56% in test [1] (concentration 3 × 10^-5 Mol/l) and 14% in test [1] (concentration 3 × 10^-6 Mol/l). Moreover, the “Percentage change of the total cholesterol (TC) level in the rat serum, X ± SD” value in test [2] (100 mg/kg) is -17.5 ± 6.2%. Further, the “Percentage change of the triglyceride … X ± SD” value in test [2] (100 mg/kg) is -19.4 ± 9.7%.
